Data: patent publication US11298363B2, “Triazolobenzazepines as vasopressin V1a receptor antagonists” (RICHTER GEDEON NYRT., priority 2017, dated 2022)

Experiments:
[1] = molecular target: T1, human vasopressin V1a receptor (Homo sapiens, UniProt P37288); test: Functional assay on human vasopressin V1a receptor expressing cell line (intracellular Ca2+ fluorescence); type: cell-based; conditions: 1321N1 cells, (Arg8)-vasopressin at EC80; read-out: IC50 (nM) on hV1a cell line
[2] = molecular target: T1, human vasopressin V1a receptor; test: Human vasopressin V1a receptor binding assay; conditions: 1321N1 cell membranes, [3H]vasopressin; read-out: Ki (nM) on hV1a cell line
Summary of the method: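 Radioligand competition on membranes from cells expressing human V1a receptor; incubation 60 minutes at 27° C., non-specific binding with 1.2×10^−6 M unlabeled (Arg^8)-vasopressin, filtration separation. Ki by Cheng-Prusoff using Scatchard-derived KD, from at least two independent experiments.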

T1 sequence (P37288 whole entry): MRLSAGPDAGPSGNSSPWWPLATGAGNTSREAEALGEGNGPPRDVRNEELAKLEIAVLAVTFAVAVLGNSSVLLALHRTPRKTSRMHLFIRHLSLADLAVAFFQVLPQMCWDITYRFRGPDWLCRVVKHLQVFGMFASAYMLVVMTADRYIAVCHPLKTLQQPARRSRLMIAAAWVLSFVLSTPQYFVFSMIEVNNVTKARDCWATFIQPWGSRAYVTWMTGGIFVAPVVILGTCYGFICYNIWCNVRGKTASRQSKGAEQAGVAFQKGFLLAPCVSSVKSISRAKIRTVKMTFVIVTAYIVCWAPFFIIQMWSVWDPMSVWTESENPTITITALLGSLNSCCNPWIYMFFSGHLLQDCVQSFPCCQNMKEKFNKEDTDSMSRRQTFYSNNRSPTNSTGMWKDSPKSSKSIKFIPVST

| SMILES | IC50 [1] | Ki [2] |
| --- | --- | --- |
| COC1Cc2cc(F)ccc2-n2c(nnc2[C@H]2CC[C@H](Oc3ccccn3)CC2)C1 (stereo partly drawn) [Example 134, 8-fluoro-5-methoxy-1-[trans-4-(pyridin-2-yloxy)cyclohexyl]-5,6-dihydro-4H-[1,2,4]triazolo[4,3-a][1]benzazepine] | 1.5 nM | 0.2 nM |
| CC(C)NC1Cc2cc(Cl)ccc2-n2c(nnc2C2CCN(c3ccccn3)CC2)C1 (stereo not drawn) [Example 135, 8-chloro-N-(propan-2-yl)-1-[l-(pyridin-2-yl)piperidin-4-yl]-5,6-dihydro-4H-[1,2,4]triazolo[4,3-a][1]benzazepin-5-amine] | 54 nM | 2.9 nM |
| OCCOC1Cc2cc(Cl)ccc2-n2c(nnc2[C@H]2CC[C@H](Oc3ccccn3)CC2)C1 (stereo partly drawn) [Example 136, 2-({8-chloro-1-[trans-4-(pyridin-2-yloxy)cyclohexyl]-5,6-dihydro-4H-[1,2,4]triazolo[4,3-a][1]benzazepin-5-yl}oxy)ethanol] | 1.6 nM | 0.2 nM |
| CCN(CC)[C@H]1Cc2cc(Cl)ccc2-n2c(nnc2[C@H]2CC[C@H](Oc3ccccn3)CC2)C1 [Example 137, (5S)-8-chloro-N,N-diethyl-1-[trans-4-(pyridin-2-yloxy)cyclohexyl]-5,6-dihydro-4H-[1,2,4]triazolo[4,3-a][1]benzazepin-5-amine] | 9.2 nM | 0.7 nM |
| CC(C)N(C)C1Cc2cc(Cl)ccc2-n2c(nnc2[C@H]2CC[C@H](Oc3ccccn3)CC2)C1 (stereo partly drawn) [Example 138, 8-chloro-N-methyl-N-(propan-2-yl)-1-[trans-4-(pyridin-2-yloxy)cyclohexyl]-5,6-dihydro-4H-[1,2,4]triazolo[4,3-a][1]benzazepin-5-amine] | 5 nM | 0.2 nM |
| CC(C)(C)OC(=O)NC1Cc2cc(Cl)ccc2-n2c(nnc2N2CCN(c3ncccc3Cl)CC2)C1 (stereo not shown) [Example 139, Tert-butyl {8-chloro-1-[4-(3-chloropyridin-2-yl)piperazin-1-yl]-5,6-dihydro-4H-[1,2,4]triazolo[4,3-a][1]benzazepin-5-yl}carbamate] | 130 nM | 9.3 nM |
| COC1Cc2cc(Cl)ccc2-n2c(nnc2C2CCN(C(=O)OC(C)(C)C)CC2)C1 (stereo not shown) [Example 140, Tert-butyl 4-(8-chloro-5-methoxy-5,6-dihydro-4H-[1,2,4]triazolo[4,3-a][1]benzazepin-1-yl)piperidine-1-carboxylate] | 57 nM | 2.4 nM |
| CC(C)[C@@H](N)C(=O)N[C@@H]1Cc2cc(Cl)ccc2-n2c(nnc2[C@H]2CC[C@H](Oc3ccccn3)CC2)C1 [Example 141, N-{(5R)-8-chloro-1-[trans-4-(pyridin-2-yloxy)cyclohexyl]-5,6-dihydro-4H-[1,2,4]triazolo[4,3-a][1]benzazepin-5-yl}-D-valinamide] | 8.9 nM | 0.7 nM |
| CC(C)(C)OC(=O)NC1Cc2ccccc2-n2c(nnc2[C@H]2CC[C@H](Oc3ccccn3)CC2)C1 (stereo partly drawn) [Example 142, Tert-butyl {1-[trans-4-(pyridin-2-yloxy)cyclohexyl]-5,6-dihydro-4H-[1,2,4]triazolo[4,3-a][1]benzazepin-5-yl}carbamate] | 225 nM | 14.3 nM |
| CC(C)(C)OC(=O)NC1Cc2cc(F)ccc2-n2c(nnc2[C@H]2CC[C@H](Oc3ccccn3)CC2)C1 (stereo partly drawn) [Example 143, Tert-butyl {8-fluoro-1-[trans-4-(pyridin-2-yloxy)cyclohexyl]-5,6-dihydro-4H-[1,2,4]triazolo[4,3-a][1]benzazepin-5-yl}carbamate] | 156 nM | 5 nM |
| NC1Cc2ccccc2-n2c(nnc2[C@H]2CC[C@H](Oc3ccccn3)CC2)C1 (stereo partly drawn) [Example 144, 1-[trans-4-(pyridin-2-yloxy)cyclohexyl]-5,6-dihydro-4H-[1,2,4]triazolo[4,3-a][1]benzazepin-5-amine] | 168 nM | 34 nM |
| NC1Cc2cc(F)ccc2-n2c(nnc2[C@H]2CC[C@H](Oc3ccccn3)CC2)C1 (stereo partly drawn) [Example 145, 8-fluoro-1-[trans-4-(pyridin-2-yloxy)cyclohexyl]-5,6-dihydro-4H-[1,2,4]triazolo[4,3-a][1]benzazepin-5-amine] | 47 nM | 12.7 nM |
| CC(C)NC1Cc2cc(F)ccc2-n2c(nnc2[C@H]2CC[C@H](Oc3ccccn3)CC2)C1 (stereo partly drawn) [Example 146, 8-fluoro-N-(propan-2-yl)-1-[trans-4-(pyridin-2-yloxy)cyclohexyl]-5,6-dihydro-4H-[1,2,4]triazolo[4,3-a][1]benzazepin-5-amine] | 78 nM | 3.2 nM |
| CN(C)C1Cc2cc(F)ccc2-n2c(nnc2[C@H]2CC[C@H](Oc3ccccn3)CC2)C1 (stereo partly drawn) [Example 147, 8-fluoro-N,N-dimethyl-1-[trans-4-(pyridin-2-yloxy)cyclohexyl]-5,6-dihydro-4H-[1,2,4]triazolo[4,3-a][1]benzazepin-5-amine] | 9.4 nM | 1 nM |
| CN(C)C1Cc2ccccc2-n2c(nnc2[C@H]2CC[C@H](Oc3ccccn3)CC2)C1 (stereo partly shown) [Example 148] | 26 nM | 1.2 nM |
| Fc1ccc2c(c1)CC1(Cc3nnc([C@H]4CC[C@H](C(F)(F)F)CC4)n3-2)OCCO1 [Example 149, 8′-fluoro-1′-[trans-4-(trifluoromethyl)cyclohexyl]-4′H,6′H-spiro[1,3-dioxolane-2,5′-[1,2,4]triazolo[4,3-a][1]benzazepine]] | 15 nM | 0.8 nM |
| CC(C)NC1Cc2ccccc2-n2c(nnc2[C@H]2CC[C@H](Oc3ccccn3)CC2)C1 (stereo partly drawn) [Example 150, N-(propan-2-yl)-1-[trans-4-(pyridin-2-yloxy)cyclohexyl]-5,6-dihydro-4H-[1,2,4]triazolo[4,3-a][1]benzazepin-5-amine] | 94 nM | 5 nM |
| O=C(N[C@H]1Cc2cc(Cl)ccc2-n2c(nnc2[C@H]2CC[C@H](Oc3ccccn3)CC2)C1)C1CCOCC1 [Example 151] | 209 nM | 30 nM |
| CCC(C)C(=O)N[C@H]1Cc2cc(Cl)ccc2-n2c(nnc2[C@H]2CC[C@H](Oc3ccccn3)CC2)C1 (stereo partly shown) [Example 152] | 737 nM | 67 nM |
| CN(C)CCC(=O)N[C@H]1Cc2cc(Cl)ccc2-n2c(nnc2[C@H]2CC[C@H](Oc3ccccn3)CC2)C1 [Example 153, N-{(5S)-8-chloro-1-[trans-4-(pyridin-2-yloxy)cyclohexyl]-5,6-dihydro-4H-[1,2,4]triazolo[4,3-a][1]benzazepin-5-yl}-N^3,N^3-dimethyl-β-alaninamide] | 307 nM | 20.5 nM |
| Clc1ccc2c(c1)C[C@H](NC1CCCC1)Cc1nnc([C@H]3CC[C@H](Oc4ccccn4)CC3)n1-2 [Example 154, (5S)-8-chloro-N-cyclopentyl-1-[trans-4-(pyridin-2-yloxy)cyclohexyl]-5,6-dihydro-4H-[1,2,4]triazolo[4,3-a][1]benzazepin-5-amine] | 21 nM | 0.8 nM |
| Clc1ccc2c(c1)CC1(Cc3nnc(N4CCC5(CC4)OCc4ccccc45)n3-2)OCCO1 [Example 155, 8′-chloro-1′-(1′H,3H-spiro[2-benzofuran-1,4′-piperidin]-1′-yl)-4′H,6′H-spiro[1,3-dioxolane-2,5′-[1,2,4]triazolo[4,3-a][1]benzazepine]] | 0.7 nM | 0.04 nM |
| O=C1Cc2cc(Cl)ccc2-n2c(nnc2N2CCC3(CC2)OCc2ccccc23)C1 [Example 156, 8-chloro-1-(1′H,3H-spiro[2-benzofuran-1,4′-piperidin]-1′-yl)-4H-[1,2,4]triazolo[4,3-a][1]benzazepin-5(6H)-one] | 9.5 nM | 0.5 nM |
